{
  "source": "patent US10875874B2",
  "about": "“Ginkgolide B derivative and preparation method and use thereof” (Chengdu Baiyu Ginkgolide Pharmaceuticals Co., Ltd., priority 2015, dated 2020)",
  "type_in_all_cases": "in vivo, rat",
  "key": {"[1]": {"experiment": "Weekly food intake of SHR rats", "conditions": "captopril 27 mg/kg intragastric", "procedure": "(§1) 2.1 Grouping and administration of animals: 112 SHR rats (the female and male SHR rats are half and half, and the female rats are not pregnant) with the body weight of 200-250 g are taken, the rats are enabled to adapt to a laboratory for a period of 5 d, blood pressure is measured once at a day to enable the rats to adapt to the environment and detect stimulation. Then, weighing and numbering are carried out, and the SHR rats are equally divided into 14 groups randomly (each group comprises 8 rats), i.e., an SHR rat model control group, a positive control group (captopril, 27 mg/kg), a BZ large-dose group (120 mg/kg/d), a BZ small-dose group (60 mg/kg/d), a BA large-dose group (120 mg/kg/d), a BA small-dose group (60 mg/kg/d), a BL large-dose group (120 mg/kg/d), a BL small-dose group (60 mg/kg/d), a BM large-dose group (120 mg/kg/d), a BM small-dose group (60 mg/kg/d), a BD large-dose group (120 mg/kg/d), a BD small-dose group (60 mg/kg/d), a GB large-dose group (120 mg/kg/d) and a GB small-dose group (60 mg/kg/d). In addition, 8 healthy Wistar rats are taken as a normal control group. Intragastric administration is performed on the rats of each drug group separately according to the above-mentioned doses by 1 mL/100 g body weight, intragastric administration is performed on the rats of the normal control group and the rats of the SHR rat model control group with an equal volume of distilled water, and administration is performed continuously for 8 weeks.\n(§2) 2.2 General state: during observation, conditions such as mind, water drinking, food intake, bowel movement, hair color, body weight and range of motion of rats are observed. Irritable degrees of the rats are divided into III levels: a level I means that the rats are free of obvious response when necks of the rats are seized; a level II means that the rats scream and startle when the necks of the rats are seized; and a level III means that the rats bite or rats of same cages frequently fight when the necks of the rats are seized.\n(§3) 3.1 Influence on general state of spontaneously hypertensive rats: the rats of the normal control group are normal in food intake, drinking and motion conditions, sensitive in response, healthy and glossy in hair color, good in mental state and free of any unusual response; the rats of the SHR model group gradually present that back hair is fluffy, clustered and dim, the appetite is reduced, the body weight is reduced, the mind is dispirited and irritable, and the rats are prone to the behaviors of intense resisting, attacking and so on during administration and blood pressure detection, and irritable degrees are mostly changed to a level II and a level III from a level I; and after single administration of ginkgolide B and derivatives thereof, behavioral general state observations of rats of each group are free of obvious difference from those of the model control group."}, "[2]": {"tested_on": "spontaneously hypertensive rats (SHR)", "experiment": "Caudal artery systolic pressure of spontaneously hypertensive rats, single administration", "conditions": "captopril 27 mg/kg intragastric single administration, x ± s, n = 8", "procedure": "as §1\n(§4) 2.3 Blood pressure measuring: caudal artery systolic pressure of rats is measured with a Bp-6 noninvasive blood pressure measuring system. Under the condition that the rats are calm, the systolic pressure is continuously measured for 3 times, and the average value of the measured systolic pressure is taken as a pressure measuring result. Observation indexes: (1) single-administration pressure lowering effect: blood pressure of the rats is measured before administration and blood pressure conditions are measured 30 min, 60 min, 90 min and 120 min after first administration; and (2) continuous-administration pressure lowering condition: blood pressure is separately measured 30 min after administration at 1 d, 7 d, 13 d, 19 d, 25 d, 35 d, 49 d and 56 d, the blood pressure is repeatedly measured for 3 times at a day, and the average value of obtained values is taken as a final blood pressure value."}, "[3]": {"tested_on": "spontaneously hypertensive rats (SHR)", "experiment": "Caudal artery systolic pressure of spontaneously hypertensive rats, 8 weeks of continuous medication", "conditions": "captopril 27 mg/kg intragastric continuous, x ± s, n = 8", "procedure": "as §1, §4"}, "[4]": {"experiment": "Weekly body weight of SHR rats", "conditions": "captopril 27 mg/kg intragastric", "procedure": "as §1, §2, §3"}},
  "note": "Marks after values point to notes of the source that are not given here.",
  "data": [
    {"smiles": "C[C@H](CS)C(=O)N1CCC[C@H]1C(=O)O", "note": "[Positive control, captopril, reference compound]", "values": [
      {"measurement": "Average dairy food intake", "setting": "[1]; week 0", "result": 18.4, "unit": "g/day"},
      {"measurement": "Average dairy food intake", "setting": "[1]; week 1", "result": "20.0^▴ g/d"},
      {"measurement": "Average dairy food intake", "setting": "[1]; week 2", "result": "19.1^▴ g/d"},
      {"measurement": "Average dairy food intake", "setting": "[1]; week 3", "result": "19.5^▴ g/d"},
      {"measurement": "Average dairy food intake", "setting": "[1]; week 4", "result": "19.9^▴ g/d"},
      {"measurement": "Average dairy food intake", "setting": "[1]; week 5", "result": "21.4^▴▴ g/d"},
      {"measurement": "Average dairy food intake", "setting": "[1]; week 6", "result": "23.8^▴▴ g/d"},
      {"measurement": "Average dairy food intake", "setting": "[1]; week 7", "result": "24.6^▴▴ g/d"},
      {"measurement": "Average dairy food intake", "setting": "[1]; week 8", "result": "26.3^▴▴ g/d"},
      {"measurement": "Systolic pressure", "setting": "[2]; 30 min", "result": "149.75 ± 8.09", "unit": "mmHg"},
      {"measurement": "Systolic pressure", "setting": "[2]; 60 min", "result": "140.95 ± 9.50", "unit": "mmHg"},
      {"measurement": "Systolic pressure", "setting": "[2]; 90 min", "result": "139.23 ± 6.04", "unit": "mmHg"},
      {"measurement": "Systolic pressure", "setting": "[2]; 120 min", "result": "134.41 ± 8.31", "unit": "mmHg"},
      {"measurement": "Systolic pressure", "setting": "[2]; before administration", "result": "161.24 ± 11.03", "unit": "mmHg"},
      {"measurement": "Systolic pressure", "setting": "[3]; 1 d, 30 min after administration", "result": "145.17 ± 6.42", "unit": "mmHg"},
      {"measurement": "Systolic pressure", "setting": "[3]; 7 d, 30 min after administration", "result": "142.05 ± 7.24", "unit": "mmHg"},
      {"measurement": "Systolic pressure", "setting": "[3]; 13 d, 30 min after administration", "result": "140.36 ± 9.20", "unit": "mmHg"},
      {"measurement": "Systolic pressure", "setting": "[3]; 19 d, 30 min after administration", "result": "138.39 ± 7.26", "unit": "mmHg"},
      {"measurement": "Systolic pressure", "setting": "[3]; 25 d, 30 min after administration", "result": "145.02 ± 7.30", "unit": "mmHg"},
      {"measurement": "Systolic pressure", "setting": "[3]; 35 d, 30 min after administration", "result": "139.08 ± 6.72", "unit": "mmHg"},
      {"measurement": "Systolic pressure", "setting": "[3]; 49 d, 30 min after administration", "result": "135.47 ± 8.47", "unit": "mmHg"},
      {"measurement": "Systolic pressure", "setting": "[3]; 56 d, 30 min after administration", "result": "130.39 ± 4.65", "unit": "mmHg"},
      {"measurement": "Systolic pressure", "setting": "[3]; before administration", "result": "161.24 ± 11.03", "unit": "mmHg"},
      {"measurement": "Body weight", "setting": "[4]; week 0", "result": 230.5, "unit": "g"},
      {"measurement": "Body weight", "setting": "[4]; week 1", "result": 235.1, "unit": "g"},
      {"measurement": "Body weight", "setting": "[4]; week 2", "result": "245.4^▴ g"},
      {"measurement": "Body weight", "setting": "[4]; week 3", "result": "255.9^▴▴ g"},
      {"measurement": "Body weight", "setting": "[4]; week 4", "result": "260.5^▴▴ g"},
      {"measurement": "Body weight", "setting": "[4]; week 5", "result": "266.3^▴▴ g"},
      {"measurement": "Body weight", "setting": "[4]; week 6", "result": "271.0^▴▴ g"},
      {"measurement": "Body weight", "setting": "[4]; week 7", "result": "280.6^▴▴ g"},
      {"measurement": "Body weight", "setting": "[4]; week 8", "result": "290.7^▴▴ g"}
    ]}
  ]
}
